{"source": "patent US11725011B2", "about": "“Bicyclic urea kinase inhibitors and uses thereof” (The Broad Institute, Inc., priority 2016, dated 2023)", "experiment_in_all_cases": "KINOMEscan", "assay_type_in_all_cases": "binding", "settings_in_all_cases": "1 uM", "key": {"ANKK1": {"molecular_target": "ANKK1 (Homo sapiens (Human), UniProt Q8NFD2)"}, "CAMKK1": {"molecular_target": "CAMKK1 (Homo sapiens (Human), UniProt Q8N5S9)"}, "CDK2": {"molecular_target": "CDK2 (Homo sapiens (Human), UniProt P24941)"}, "CDKL5": {"molecular_target": "CDKL5 (Homo sapiens (Human), UniProt O76039)"}, "CSNK2A1": {"molecular_target": "CSNK2A1 (Homo sapiens (Human), UniProt P68400)"}, "DLK": {"molecular_target": "DLK (Homo sapiens (Human), UniProt Q12852)"}, "[1]": {"molecular_target": "EGFR (L747-T751del, Sins) (Homo sapiens (Human), UniProt P00533, DEL747-751/INS746S)", "sequence (P00533 other isoform, or with tags, fused parts or gaps del 1-668/ins S behind 746/del 747-751/del 1012-1210 limits assumed)": "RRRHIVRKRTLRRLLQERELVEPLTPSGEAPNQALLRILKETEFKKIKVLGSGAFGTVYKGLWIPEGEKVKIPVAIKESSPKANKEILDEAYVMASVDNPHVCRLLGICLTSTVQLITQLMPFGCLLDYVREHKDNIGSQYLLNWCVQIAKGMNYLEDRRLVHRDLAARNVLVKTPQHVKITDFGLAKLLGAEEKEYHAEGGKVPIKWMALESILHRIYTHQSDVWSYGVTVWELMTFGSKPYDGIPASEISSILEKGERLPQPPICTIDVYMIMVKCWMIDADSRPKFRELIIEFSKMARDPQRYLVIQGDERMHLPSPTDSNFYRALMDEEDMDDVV"}, "EIF2AK1": {"molecular_target": "EIF2AK1 (Homo sapiens (Human), UniProt Q9BQI3)"}, "ERK2": {"molecular_target": "ERK2 (Homo sapiens (Human), UniProt P28482)"}, "FLT3 (D835Y)": {"molecular_target": "FLT3 (D835Y) (Homo sapiens (Human), UniProt P36888, D835Y)"}, "HASPIN": {"molecular_target": "HASPIN (Homo sapiens (Human), UniProt Q8TF76)"}, "IGF1R": {"molecular_target": "IGF1R (Homo sapiens (Human), UniProt P08069)"}, "IRAK4": {"molecular_target": "IRAK4 (Homo sapiens (Human), UniProt Q9NWZ3)"}, "KIT (L576P)": {"molecular_target": "KIT (L576P) (Homo sapiens (Human), UniProt P10721, L576P)"}, "MAP3K3": {"molecular_target": "MAP3K3 (Homo sapiens (Human), UniProt Q99759)", "sequence (Q99759 whole entry)": "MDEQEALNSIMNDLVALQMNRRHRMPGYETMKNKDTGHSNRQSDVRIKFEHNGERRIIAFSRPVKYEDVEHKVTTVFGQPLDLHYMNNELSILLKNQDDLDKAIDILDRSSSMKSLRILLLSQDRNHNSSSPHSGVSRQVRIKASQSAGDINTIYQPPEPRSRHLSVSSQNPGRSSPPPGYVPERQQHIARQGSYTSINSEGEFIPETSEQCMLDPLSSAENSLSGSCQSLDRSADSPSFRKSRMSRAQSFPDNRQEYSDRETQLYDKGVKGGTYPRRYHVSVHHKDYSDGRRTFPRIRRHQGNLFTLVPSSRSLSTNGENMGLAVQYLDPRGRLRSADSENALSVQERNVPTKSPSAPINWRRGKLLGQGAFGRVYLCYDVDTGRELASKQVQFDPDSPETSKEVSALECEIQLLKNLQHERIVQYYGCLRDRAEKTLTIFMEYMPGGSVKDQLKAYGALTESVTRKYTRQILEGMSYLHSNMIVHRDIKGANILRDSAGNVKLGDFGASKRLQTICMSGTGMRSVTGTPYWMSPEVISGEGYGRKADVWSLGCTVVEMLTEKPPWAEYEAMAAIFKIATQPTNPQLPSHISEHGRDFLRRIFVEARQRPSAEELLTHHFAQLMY"}, "MAP4K4": {"molecular_target": "MAP4K4 (Homo sapiens (Human), UniProt O95819)"}, "MEK2": {"molecular_target": "MEK2 (Homo sapiens (Human), UniProt P36507)", "sequence (P36507 whole entry)": "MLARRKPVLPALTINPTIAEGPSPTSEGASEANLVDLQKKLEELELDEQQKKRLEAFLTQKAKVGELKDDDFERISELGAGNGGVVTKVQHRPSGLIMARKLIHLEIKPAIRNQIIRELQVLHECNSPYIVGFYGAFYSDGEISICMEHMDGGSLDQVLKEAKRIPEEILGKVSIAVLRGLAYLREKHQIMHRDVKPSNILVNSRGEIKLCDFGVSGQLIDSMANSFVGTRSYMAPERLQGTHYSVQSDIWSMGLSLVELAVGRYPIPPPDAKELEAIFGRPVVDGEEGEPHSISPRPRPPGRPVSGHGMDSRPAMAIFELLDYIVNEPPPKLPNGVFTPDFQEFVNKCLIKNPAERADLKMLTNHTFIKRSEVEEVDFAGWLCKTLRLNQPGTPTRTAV"}, "MST1R": {"molecular_target": "MST1R (Homo sapiens (Human), UniProt Q04912)", "sequence (Q04912 25-1400)": "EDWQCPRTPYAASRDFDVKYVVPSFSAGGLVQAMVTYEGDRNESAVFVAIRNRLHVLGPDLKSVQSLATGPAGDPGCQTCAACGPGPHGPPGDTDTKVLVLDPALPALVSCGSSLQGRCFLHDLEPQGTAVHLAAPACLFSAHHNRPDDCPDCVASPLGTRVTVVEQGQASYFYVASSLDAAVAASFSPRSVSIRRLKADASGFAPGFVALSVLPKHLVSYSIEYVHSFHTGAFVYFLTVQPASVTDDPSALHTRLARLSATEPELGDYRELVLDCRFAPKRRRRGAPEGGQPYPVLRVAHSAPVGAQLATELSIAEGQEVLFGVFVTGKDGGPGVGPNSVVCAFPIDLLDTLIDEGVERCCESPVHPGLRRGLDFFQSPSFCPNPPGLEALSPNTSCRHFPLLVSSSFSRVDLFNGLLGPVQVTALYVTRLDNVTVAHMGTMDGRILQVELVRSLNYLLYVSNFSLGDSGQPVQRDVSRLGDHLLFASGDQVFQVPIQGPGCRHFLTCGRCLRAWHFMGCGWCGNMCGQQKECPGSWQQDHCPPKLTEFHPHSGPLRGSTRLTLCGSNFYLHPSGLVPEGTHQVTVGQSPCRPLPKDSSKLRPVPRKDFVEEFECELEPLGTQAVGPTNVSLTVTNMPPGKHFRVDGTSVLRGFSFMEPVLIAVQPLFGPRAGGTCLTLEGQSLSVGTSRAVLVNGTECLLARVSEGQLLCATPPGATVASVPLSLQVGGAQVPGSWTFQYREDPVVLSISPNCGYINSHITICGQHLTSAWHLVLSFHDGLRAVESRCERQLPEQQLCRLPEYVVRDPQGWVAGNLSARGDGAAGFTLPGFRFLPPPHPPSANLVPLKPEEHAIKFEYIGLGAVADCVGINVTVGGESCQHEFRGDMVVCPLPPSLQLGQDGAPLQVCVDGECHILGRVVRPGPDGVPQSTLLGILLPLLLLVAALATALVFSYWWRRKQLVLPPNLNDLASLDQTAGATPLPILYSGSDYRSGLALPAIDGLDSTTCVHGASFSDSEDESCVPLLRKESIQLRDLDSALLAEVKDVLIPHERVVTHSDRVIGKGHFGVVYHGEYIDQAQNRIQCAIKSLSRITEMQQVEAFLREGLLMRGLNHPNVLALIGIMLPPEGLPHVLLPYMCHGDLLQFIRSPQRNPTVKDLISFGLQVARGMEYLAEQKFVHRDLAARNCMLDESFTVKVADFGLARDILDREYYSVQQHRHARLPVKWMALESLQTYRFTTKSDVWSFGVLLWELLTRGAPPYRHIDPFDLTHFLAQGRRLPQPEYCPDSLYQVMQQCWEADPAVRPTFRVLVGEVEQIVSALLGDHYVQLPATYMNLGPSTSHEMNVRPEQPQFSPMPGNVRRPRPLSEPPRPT"}, "MYLK": {"molecular_target": "MYLK (Homo sapiens (Human), UniProt Q15746)"}, "PCTK2": {"molecular_target": "PCTK2 (Homo sapiens (Human), UniProt Q00537)"}, "PFTAIRE2": {"molecular_target": "PFTAIRE2 (Homo sapiens (Human), UniProt Q96Q40)"}, "PIK3C2G": {"molecular_target": "PIK3C2G (Homo sapiens (Human), UniProt O75747)"}, "PIK3CA (C420R)": {"molecular_target": "PIK3CA (C420R) (Homo sapiens (Human), UniProt P42336, C420R)"}, "PIM3": {"molecular_target": "PIM3 (Homo sapiens (Human), UniProt Q86V86)"}, "PIP5K1C": {"molecular_target": "PIP5K1C (Homo sapiens (Human), UniProt O60331)"}, "PKMYT1": {"molecular_target": "PKMYT1 (Homo sapiens (Human), UniProt Q99640)"}, "PLK3": {"molecular_target": "PLK3 (Homo sapiens (Human), UniProt Q9H4B4)"}, "PRKD1": {"molecular_target": "PRKD1 (Homo sapiens (Human), UniProt Q15139)"}, "PYK2": {"molecular_target": "PYK2 (Homo sapiens (Human), UniProt Q14289)"}, "RIOK2": {"molecular_target": "RIOK2 (Homo sapiens (Human), UniProt Q9BVS4)", "sequence (Q9BVS4 whole entry)": "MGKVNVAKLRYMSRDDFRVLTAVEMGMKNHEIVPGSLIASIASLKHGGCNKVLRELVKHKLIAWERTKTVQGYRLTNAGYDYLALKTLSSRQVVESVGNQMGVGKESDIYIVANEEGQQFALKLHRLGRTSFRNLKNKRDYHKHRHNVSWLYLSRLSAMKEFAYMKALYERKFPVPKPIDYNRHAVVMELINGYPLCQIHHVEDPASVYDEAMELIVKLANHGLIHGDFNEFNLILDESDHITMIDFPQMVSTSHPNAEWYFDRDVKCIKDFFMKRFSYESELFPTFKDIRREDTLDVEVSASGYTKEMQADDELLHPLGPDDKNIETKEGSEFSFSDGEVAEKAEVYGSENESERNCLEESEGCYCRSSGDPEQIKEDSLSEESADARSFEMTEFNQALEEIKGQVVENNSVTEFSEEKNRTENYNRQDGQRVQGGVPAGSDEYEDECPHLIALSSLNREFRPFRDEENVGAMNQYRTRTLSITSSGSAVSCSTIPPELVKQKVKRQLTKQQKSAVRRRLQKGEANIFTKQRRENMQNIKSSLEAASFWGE"}, "[2]": {"molecular_target": "RSK4 (Kin.Dom.2-C-terminal) (Homo sapiens (Human), UniProt Q9UK32)"}, "SGK3": {"molecular_target": "SGK3 (Homo sapiens (Human), UniProt Q96BR1)", "sequence (Q96BR1 whole entry)": "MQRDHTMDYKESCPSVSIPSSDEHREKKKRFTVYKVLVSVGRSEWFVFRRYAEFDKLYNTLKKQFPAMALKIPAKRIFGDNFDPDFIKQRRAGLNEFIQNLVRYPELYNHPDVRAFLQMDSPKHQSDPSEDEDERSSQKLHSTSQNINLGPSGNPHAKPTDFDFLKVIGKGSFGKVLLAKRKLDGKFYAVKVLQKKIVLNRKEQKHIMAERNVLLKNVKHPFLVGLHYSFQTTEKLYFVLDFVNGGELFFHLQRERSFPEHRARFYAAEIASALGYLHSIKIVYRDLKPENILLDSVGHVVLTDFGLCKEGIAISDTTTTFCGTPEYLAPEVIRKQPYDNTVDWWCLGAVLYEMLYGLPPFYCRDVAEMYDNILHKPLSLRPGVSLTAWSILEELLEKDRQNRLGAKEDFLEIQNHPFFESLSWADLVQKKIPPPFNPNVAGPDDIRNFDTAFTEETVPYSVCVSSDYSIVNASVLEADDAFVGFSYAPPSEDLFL"}, "SIK": {"molecular_target": "SIK (Homo sapiens (Human), UniProt P57059)"}, "SRPK1": {"molecular_target": "SRPK1 (Homo sapiens (Human), UniProt Q96SB4)"}, "STK33": {"molecular_target": "STK33 (Homo sapiens (Human), UniProt Q9BYT3)"}, "TESK1": {"molecular_target": "TESK1 (Homo sapiens (Human), UniProt Q15569)"}, "TGFBR1": {"molecular_target": "TGFBR1 (Homo sapiens (Human), UniProt P36897)"}, "TNK2": {"molecular_target": "TNK2 (Homo sapiens (Human), UniProt Q07912)"}, "[3]": {"molecular_target": "TYK2 (JH2domain-pseudokinase) (Homo sapiens (Human), UniProt P29597)"}, "ULK2": {"molecular_target": "ULK2 (Homo sapiens (Human), UniProt Q8IYT8)", "sequence (Q8IYT8 whole entry)": "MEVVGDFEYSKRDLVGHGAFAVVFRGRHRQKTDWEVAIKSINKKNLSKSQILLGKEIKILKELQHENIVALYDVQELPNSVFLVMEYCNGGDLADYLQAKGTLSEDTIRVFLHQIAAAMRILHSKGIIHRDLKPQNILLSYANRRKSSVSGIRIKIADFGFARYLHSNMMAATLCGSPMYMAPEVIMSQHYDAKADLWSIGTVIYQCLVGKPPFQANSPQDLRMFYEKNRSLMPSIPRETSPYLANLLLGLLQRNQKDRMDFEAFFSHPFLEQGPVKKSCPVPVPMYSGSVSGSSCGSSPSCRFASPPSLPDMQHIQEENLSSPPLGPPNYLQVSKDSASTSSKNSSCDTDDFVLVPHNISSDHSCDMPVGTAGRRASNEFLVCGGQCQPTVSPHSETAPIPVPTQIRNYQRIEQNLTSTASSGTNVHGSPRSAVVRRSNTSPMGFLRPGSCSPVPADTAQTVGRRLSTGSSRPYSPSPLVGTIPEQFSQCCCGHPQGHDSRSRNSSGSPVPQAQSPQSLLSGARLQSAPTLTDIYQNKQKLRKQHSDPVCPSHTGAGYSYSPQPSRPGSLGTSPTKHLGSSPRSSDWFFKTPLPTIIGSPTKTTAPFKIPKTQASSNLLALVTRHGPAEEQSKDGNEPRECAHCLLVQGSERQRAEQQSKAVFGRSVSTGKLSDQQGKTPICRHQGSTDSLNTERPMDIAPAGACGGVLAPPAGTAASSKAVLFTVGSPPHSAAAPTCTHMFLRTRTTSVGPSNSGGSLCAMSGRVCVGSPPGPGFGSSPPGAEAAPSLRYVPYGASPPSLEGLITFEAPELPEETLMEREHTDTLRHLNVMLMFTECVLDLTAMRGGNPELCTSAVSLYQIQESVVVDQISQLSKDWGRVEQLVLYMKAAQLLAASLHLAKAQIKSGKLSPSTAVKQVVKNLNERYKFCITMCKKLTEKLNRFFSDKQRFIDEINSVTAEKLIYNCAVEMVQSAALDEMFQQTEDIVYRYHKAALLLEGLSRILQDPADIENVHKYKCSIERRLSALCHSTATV"}}}
{"smiles": "COc1ccc(N2C(=O)N(c3c(C)cccc3C)Cc3cnc(Nc4ccc(N5CCN(C)CC5)cc4)nc32)c(OC)c1", "note": "[HG-11-136-01]", "values": [{"measurement": "KINOMEscan ANKK1", "setting": "ANKK1", "value": 68}, {"measurement": "KINOMEscan CAMKK1", "setting": "CAMKK1", "value": 94}, {"measurement": "KINOMEscan CDK2", "setting": "CDK2", "value": 97}, {"measurement": "KINOMEscan CDKL5", "setting": "CDKL5", "value": 98}, {"measurement": "KINOMEscan CSNK2A1", "setting": "CSNK2A1", "value": 1.9}, {"measurement": "KINOMEscan DLK", "setting": "DLK", "value": 6.6}, {"measurement": "KINOMEscan EGFR (L747-T751del, Sins)", "setting": "[1]", "value": 0.3}, {"measurement": "KINOMEscan EIF2AK1", "setting": "EIF2AK1", "value": 93}, {"measurement": "KINOMEscan ERK2", "setting": "ERK2", "value": 96}, {"measurement": "KINOMEscan FLT3 (D835Y)", "setting": "FLT3 (D835Y)", "value": 14}, {"measurement": "KINOMEscan HASPIN", "setting": "HASPIN", "value": 92}, {"measurement": "KINOMEscan IGF1R", "setting": "IGF1R", "value": 100}, {"measurement": "KINOMEscan IRAK4", "setting": "IRAK4", "value": 49}, {"measurement": "KINOMEscan KIT (L576P)", "setting": "KIT (L576P)", "value": 0}, {"measurement": "KINOMEscan MAP3K3", "setting": "MAP3K3", "value": 0.1}, {"measurement": "KINOMEscan MAP4K4", "setting": "MAP4K4", "value": 17}, {"measurement": "KINOMEscan MEK2", "setting": "MEK2", "value": 0.2}, {"measurement": "KINOMEscan MST1R", "setting": "MST1R", "value": 100}, {"measurement": "KINOMEscan MYLK", "setting": "MYLK", "value": 86}, {"measurement": "KINOMEscan PCTK2", "setting": "PCTK2", "value": 91}, {"measurement": "KINOMEscan PFTAIRE2", "setting": "PFTAIRE2", "value": 78}, {"measurement": "KINOMEscan PIK3C2G", "setting": "PIK3C2G", "value": 87}, {"measurement": "KINOMEscan PIK3CA (C420R)", "setting": "PIK3CA (C420R)", "value": 69}, {"measurement": "KINOMEscan PIM3", "setting": "PIM3", "value": 90}, {"measurement": "KINOMEscan PIP5K1C", "setting": "PIP5K1C", "value": 70}, {"measurement": "KINOMEscan PKMYT1", "setting": "PKMYT1", "value": 42}, {"measurement": "KINOMEscan PLK3", "setting": "PLK3", "value": 31}, {"measurement": "KINOMEscan PRKD1", "setting": "PRKD1", "value": 3.6}, {"measurement": "KINOMEscan PYK2", "setting": "PYK2", "value": 15}, {"measurement": "KINOMEscan RIOK2", "setting": "RIOK2", "value": 87}, {"measurement": "KINOMEscan RSK4 (Kin.Dom.2-C-terminal)", "setting": "[2]", "value": 4}, {"measurement": "KINOMEscan SGK3", "setting": "SGK3", "value": 77}, {"measurement": "KINOMEscan SIK", "setting": "SIK", "value": 0.9}, {"measurement": "KINOMEscan SRPK1", "setting": "SRPK1", "value": 16}, {"measurement": "KINOMEscan STK33", "setting": "STK33", "value": 24}, {"measurement": "KINOMEscan TESK1", "setting": "TESK1", "value": 0}, {"measurement": "KINOMEscan TGFBR1", "setting": "TGFBR1", "value": 33}, {"measurement": "KINOMEscan TNK2", "setting": "TNK2", "value": 0.15}, {"measurement": "KINOMEscan TYK2 (JH2domain-pseudokinase)", "setting": "[3]", "value": 1.2}, {"measurement": "KINOMEscan ULK2", "setting": "ULK2", "value": 2.2}]}
